{"source": "patent US8466291B2", "about": "“1,5-dideoxy-1,5-imino-D-glucitol compounds” (Academia Sinica, priority 2008, dated 2013)", "biological_target": "T1, Human O-GlcNAcase (Homo sapiens, UniProt O60502)", "T1 construct": "made in house", "T1 sequence (O60502 1-916)": "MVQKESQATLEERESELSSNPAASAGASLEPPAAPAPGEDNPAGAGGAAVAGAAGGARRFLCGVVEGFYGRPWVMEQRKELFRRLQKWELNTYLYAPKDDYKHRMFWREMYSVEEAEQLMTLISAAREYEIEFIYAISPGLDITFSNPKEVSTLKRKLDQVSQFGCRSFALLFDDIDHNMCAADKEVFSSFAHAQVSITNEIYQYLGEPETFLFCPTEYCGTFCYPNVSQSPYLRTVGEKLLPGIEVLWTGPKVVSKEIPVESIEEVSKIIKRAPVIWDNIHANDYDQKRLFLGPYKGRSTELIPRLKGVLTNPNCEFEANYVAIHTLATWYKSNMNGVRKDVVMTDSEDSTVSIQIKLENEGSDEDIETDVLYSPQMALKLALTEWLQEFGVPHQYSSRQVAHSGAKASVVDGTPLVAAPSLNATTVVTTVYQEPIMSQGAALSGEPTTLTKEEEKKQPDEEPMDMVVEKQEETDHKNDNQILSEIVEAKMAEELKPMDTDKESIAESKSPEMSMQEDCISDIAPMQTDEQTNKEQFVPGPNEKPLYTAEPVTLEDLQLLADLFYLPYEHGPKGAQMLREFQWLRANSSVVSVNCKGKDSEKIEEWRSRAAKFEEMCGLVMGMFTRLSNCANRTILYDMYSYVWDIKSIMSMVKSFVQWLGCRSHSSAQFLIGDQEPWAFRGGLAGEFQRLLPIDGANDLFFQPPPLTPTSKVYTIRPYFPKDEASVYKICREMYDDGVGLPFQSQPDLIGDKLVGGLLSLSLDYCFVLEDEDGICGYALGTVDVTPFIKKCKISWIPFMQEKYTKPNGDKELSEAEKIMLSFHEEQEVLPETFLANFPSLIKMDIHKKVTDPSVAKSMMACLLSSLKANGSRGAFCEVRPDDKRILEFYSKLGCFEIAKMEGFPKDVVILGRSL", "experiment": "Inhibition of human O-GlcNAcase", "type": "biochemical", "conditions": "Table 2", "procedure": "Human O-GlcNAcase was also prepared and tested according to the procedures described in Gao et al., J. Biol. Chem. 2001, 276, 9838-9845 and Macauley et al., J. Am. Chem. Soc. 2005, 127, 17202-17203.", "data": [{"smiles": "CC(=O)NC1CN(CCCCCCCNC(=O)CCCCC2SCC3NC(=O)NC32)C(CO)C(O)C1O", "note": "(centres unmarked) [Compound 5]", "values": [{"measurement": "Selectivity (KI O-GlcNAcase/KI HEX)", "setting": "Human O-GlcNAcase over human HEX B", "result": "5,400"}, {"measurement": "Ki", "setting": "Human O-GlcNAcase", "result": "145 ± 1.77", "unit": "µM"}]}]}
